Laboratory results reported in patent publication US11566007B2, “Ras inhibitors” (Revolution Medicines, Inc., priority 2019, dated 2023).
“And” between values parts separate entries of the source, which are not always exact repeats. Equal entries are not always repeated.

Assays:
[1] = system: NCI-H358 cells (K-Ras G12C); test: Potency assay: pERK in NCI-H358 cells; format: cell-based, human; conditions: Homo sapiens, NCI-H358; H358 KRAS G12C; read-out: pERK EC50
How it was run: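 4 h cpd, 37 °C; 10-pt 3-fold series, 10 mM DMSO top stock, duplicates. Readout pERK: AlphaLISA SureFire Ultra or In-Cell Western (IR-800CW secondary, DRAQ5 DNA stain). IC50, 4-PL fit vs log conc.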

NCI-H358 (K-Ras G12C) = test: CellTiter-Glo cell viability assay, NCI-H358; format: cell-based, human; conditions: Homo sapiens, NCI-H358, 120 h, NCI-H358, 5-day treatment; class symbols; read-out: Additional H358 Cell Viability assay data (K-Ras G12C, IC50)
How it was run: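 Viability of K-Ras mutant lines is measured by ATP luminescence after five days of compound treatment. Percent of DMSO control is calculated and dose-response data are fitted with a four-parameter logistic equation.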

K-Ras G12C = K-Ras G12C (Homo sapiens (Human), UniProt P01116+P62937, G12C); test: Ras-Raf (BRAF RBD) disruption / FRET / MOA assay, KRAS G12C; format: biochemical; conditions: KRAS G12C; Ras-Raf disruption/FRET/MOA assay; read-out: IC50* KRAS G12C FRET data
How it was run: (§1)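 Ternary complex formation (Ras–compound–cyclophilin A) displacing BRAF RBD, monitored by TR-FRET. Three hours at 25° C with compound (top 30 μM final), then 1.5 h with the labelled antibodies. Lower ratio than DMSO indicates disruption; IC50 reported.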

K-Ras G13C = K-Ras G13C (Homo sapiens (Human), UniProt P01116+P62937, G13C); test: Ras-Raf (BRAF RBD) disruption / FRET / MOA assay, KRAS G13C; format: biochemical; conditions: KRAS G13C; Ras-Raf disruption/FRET/MOA assay; read-out: IC50* KRAS G13C FRET data
How it was run: as §1

KRAS G12S = KRAS G12S (Homo sapiens (Human), UniProt P01116+P62937, G12S); test: Ras-Raf (BRAF RBD) disruption / FRET / MOA assay, KRAS G12S; format: biochemical; conditions: Ras-Raf disruption/FRET/MOA assay; class symbols; read-out: KRAS G12S FRET data IC50
How it was run: as §1

KRAS G12D = KRAS G12D (Homo sapiens (Human), UniProt P01116+P62937, G12D); test: Ras-Raf (BRAF RBD) disruption / FRET / MOA assay, KRAS G12D; format: biochemical; conditions: Ras-Raf disruption/FRET/MOA assay; class symbols; read-out: KRAS G12D FRET data IC50
How it was run: as §1

KRAS G12V = KRAS G12V (Homo sapiens (Human), UniProt P01116+P62937, G12V); test: Ras-Raf (BRAF RBD) disruption / FRET / MOA assay, KRAS G12V; format: biochemical; conditions: read-out: IC50* KRAS G12V FRET data
How it was run: as §1

KRAS WT = KRAS WT (Homo sapiens (Human), UniProt P01116+P62937); test: Ras-Raf (BRAF RBD) disruption / FRET / MOA assay, KRAS WT; format: biochemical; conditions: read-out: IC50* KRAS WT FRET data
How it was run: as §1

KRAS G13D = KRAS G13D (Homo sapiens (Human), UniProt P01116+P62937, G13D); test: Ras-Raf (BRAF RBD) disruption / FRET / MOA assay, KRAS G13D; format: biochemical; conditions: read-out: IC50* KRAS G13D FRET data
How it was run: as §1

NRAS G12C = NRAS G12C (Homo sapiens (Human), UniProt P01111+P62937, G12C); test: Ras-Raf (BRAF RBD) disruption / FRET / MOA assay, NRAS G12C; format: biochemical; conditions: read-out: IC50* NRAS G12C FRET data
How it was run: as §1

Sequence of KRAS G13D (P01116-2 other isoform, or with tags, fused parts or gaps G13D): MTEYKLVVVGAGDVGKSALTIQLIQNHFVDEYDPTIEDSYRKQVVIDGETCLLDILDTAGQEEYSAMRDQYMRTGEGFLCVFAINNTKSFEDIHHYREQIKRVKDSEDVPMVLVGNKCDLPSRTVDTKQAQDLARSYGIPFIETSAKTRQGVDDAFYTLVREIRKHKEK
Sequence of KRAS G13D (P62937 whole entry): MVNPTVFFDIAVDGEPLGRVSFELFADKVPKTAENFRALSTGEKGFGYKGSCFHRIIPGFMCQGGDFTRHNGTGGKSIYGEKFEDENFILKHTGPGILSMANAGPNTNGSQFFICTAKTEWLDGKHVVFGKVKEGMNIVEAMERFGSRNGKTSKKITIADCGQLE
Sequence of NRAS G12C (P01111 whole entry G12C): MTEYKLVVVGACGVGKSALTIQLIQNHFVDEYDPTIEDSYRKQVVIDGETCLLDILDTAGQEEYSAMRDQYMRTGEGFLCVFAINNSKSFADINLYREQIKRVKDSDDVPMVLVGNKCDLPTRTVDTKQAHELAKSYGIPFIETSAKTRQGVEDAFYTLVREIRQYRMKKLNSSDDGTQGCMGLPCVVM
Sequence of NRAS G12C (P62937 whole entry): as the sequence (P62937 whole entry) above
Sequence of KRAS G12D (P01116-2 other isoform, or with tags, fused parts or gaps G12D): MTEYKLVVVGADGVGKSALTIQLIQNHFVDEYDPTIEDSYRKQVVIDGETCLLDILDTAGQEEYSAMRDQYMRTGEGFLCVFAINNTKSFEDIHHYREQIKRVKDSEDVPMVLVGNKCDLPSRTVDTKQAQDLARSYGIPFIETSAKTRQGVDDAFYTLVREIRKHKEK
Sequence of KRAS G12D (P62937 whole entry): as the sequence (P62937 whole entry) above
Sequence of KRAS G12S (P01116-2 other isoform, or with tags, fused parts or gaps G12S): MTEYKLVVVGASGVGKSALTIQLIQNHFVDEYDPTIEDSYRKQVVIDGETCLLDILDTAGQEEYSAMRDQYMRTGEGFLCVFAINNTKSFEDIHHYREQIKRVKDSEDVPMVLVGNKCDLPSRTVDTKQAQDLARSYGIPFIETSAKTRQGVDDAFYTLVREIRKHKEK
Sequence of KRAS G12S (P62937 whole entry): as the sequence (P62937 whole entry) above
Sequence of KRAS WT (P01116-2 other isoform, or with tags, fused parts or gaps): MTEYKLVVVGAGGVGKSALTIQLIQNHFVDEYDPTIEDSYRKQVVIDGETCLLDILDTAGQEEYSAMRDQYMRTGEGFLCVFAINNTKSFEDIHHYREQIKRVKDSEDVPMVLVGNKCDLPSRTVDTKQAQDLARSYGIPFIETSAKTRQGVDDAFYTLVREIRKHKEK
Sequence of KRAS WT (P62937 whole entry): as the sequence (P62937 whole entry) above
Sequence of K-Ras G12C (P01116-2 other isoform, or with tags, fused parts or gaps G12C): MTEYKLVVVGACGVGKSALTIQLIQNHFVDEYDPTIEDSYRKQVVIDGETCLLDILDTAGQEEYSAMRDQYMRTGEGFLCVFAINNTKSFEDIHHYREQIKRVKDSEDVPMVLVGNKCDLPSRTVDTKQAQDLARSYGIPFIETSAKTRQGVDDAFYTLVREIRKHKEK
Sequence of K-Ras G12C (P62937 whole entry): as the sequence (P62937 whole entry) above
Sequence of K-Ras G13C (P01116-2 other isoform, or with tags, fused parts or gaps G13C): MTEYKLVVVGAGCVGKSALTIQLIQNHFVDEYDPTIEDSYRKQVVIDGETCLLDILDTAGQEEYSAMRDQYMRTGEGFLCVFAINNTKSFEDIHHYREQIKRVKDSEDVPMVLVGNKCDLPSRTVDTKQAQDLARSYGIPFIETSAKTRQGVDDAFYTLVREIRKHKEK
Sequence of K-Ras G13C (P62937 whole entry): as the sequence (P62937 whole entry) above
Sequence of KRAS G12V (P01116-2 other isoform, or with tags, fused parts or gaps G12V): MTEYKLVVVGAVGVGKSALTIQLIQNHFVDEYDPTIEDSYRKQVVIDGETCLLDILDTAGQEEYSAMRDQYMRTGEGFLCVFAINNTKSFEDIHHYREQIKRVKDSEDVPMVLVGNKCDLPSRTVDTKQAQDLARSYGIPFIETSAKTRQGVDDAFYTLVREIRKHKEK
Sequence of KRAS G12V (P62937 whole entry): as the sequence (P62937 whole entry) above

Row | Structure (SMILES) | EC50 [1] [nM] | IC50 (NCI-H358 (K-Ras G12C)) [nM] | IC50 (K-Ras G12C) | IC50 (K-Ras G13C) | IC50 (KRAS G12S) | IC50 (KRAS G12D) [nM] | IC50 (KRAS G12V) | IC50 (KRAS WT) | IC50 (KRAS G13D) [nM] | IC50 (NRAS G12C)
1 | CCn1c(-c2cccnc2[C@H](C)OC)c2c3cc(ccc31)-c1cccc(c1)C[C@H](NC(=O)CCOC1CN(C(=O)C#CC(C)(C)N(C)C)C1)C(=O)N1CCC[C@H](N1)C(=O)OCC(C)(C)C2 (atropisomer, axis not shown) [Example A448] | < 5000 | 10 to 100 | 10 to 100 nM | > 10000 nM | > 10000 nM | > 10000 | > 10000 nM | > 10000 nM | > 10000 | 10 to 100 nM
2 | C#CC(=O)N1CC[C@H](C(=O)N(C)[C@H](C(=O)N[C@H]2Cc3cc(O)cc(c3)-c3ccc4c(c3)c(c(-c3cnccc3[C@H](C)OC)n4CC)CC(C)(C)COC(=O)[C@@H]3CCCN(N3)C2=O)C(C)C)C1 [Example A150] | < 5000 | < 10 | 10 to 100 nM | 10 to 100 nM | 100 to 1000 nM | 1000 to 10000 | 100 to 1000 nM | 100 to 1000 nM | 100 to 1000 | 10 to 100 nM
3 | C=CC(=O)N1CC[C@H](C(=O)N(C)[C@H](C(=O)N[C@H]2Cc3cccc(c3)-c3ccc4c(c3)c(c(-c3cccnc3[C@H](C)OC)n4CC)CC(C)(C)COC(=O)[C@@H]3CCCN(N3)C2=O)C2CCC2)C1 (atropisomer, axis not shown) [Example A321] | < 5000 | 10 to 100 | 100 to 1000 nM | 1000 to 10000 nM | 1000 to 10000 nM | > 10000 | 1000 to 10000 nM | 1000 to 10000 nM | 1000 to 10000 | 100 to 1000 nM
4 | C=CC(=O)N1CC(N(C)C(=O)N(C)[C@H](C(=O)N[C@H]2Cc3nc(cs3)-c3ccc4c(c3)c(c(-c3cccnc3[C@H](C)OC)n4CC)CC(C)(C)COC(=O)[C@@H]3CCCN(N3)C2=O)C(C)C)C1 (atropisomer, axis not shown) [Example A435] | < 5000 | < 10 | 10 to 100 nM | 100 to 1000 nM | 100 to 1000 nM | 1000 to 10000 | 100 to 1000 nM | 100 to 1000 nM | 1000 to 10000 | < 10 nM
5 | CCn1c(-c2cccnc2[C@H](C)OC)c2c3cc(ccc31)-c1csc(n1)C[C@H](NC(=O)[C@H](C(C)C)N1CCC3(CCN(C(=O)C#CC(C)(C)N(C)C)CC3)C1=O)C(=O)N1CCC[C@H](N1)C(=O)OCC(C)(C)C2 (atropisomer, axis not shown) [Example A322] | < 5000 | < 10 | < 10 nM | 100 to 1000 nM | > 10000 nM | > 10000 | > 10000 nM | > 10000 nM | > 10000 | 10 to 100 nM
6 | CC#CC(=O)N1CC[C@@]2(CCN([C@H](C(=O)N[C@H]3Cc4nc(cs4)-c4ccc5c(c4)c(c(-c4cccnc4[C@H](C)OC)n5CC)CC(C)(C)COC(=O)[C@@H]4CCCN(N4)C3=O)C(C)C)C2=O)C1 (atropisomer, axis not shown) [Example A535] | < 5000 | 10 to 100 | 1000 to 10000 nM | 1000 to 10000 nM | 1000 to 10000 nM | > 10000 | > 10000 nM | > 10000 nM | > 10000 | 1000 to 10000 nM
7 | CCn1c(-c2cccnc2[C@H](C)OC)c2c3cc(ccc31)-c1cc(O)cc(c1)C[C@H](NC(=O)[C@H](C(C)C)N1CC[C@]3(CCN(C(=O)/C=C/CN(C)C)C3)C1=O)C(=O)N1CCC[C@H](N1)C(=O)OCC(C)(C)C2 (atropisomer, axis not shown) [Example A268] | < 5000 | 10 to 100 | < 10 nM | 10 to 100 nM | 10 to 100 nM | 10 to 100 | 10 to 100 nM | 10 to 100 nM | 10 to 100 | < 10 nM
8 | CCn1c(-c2cccnc2[C@H](C)OC)c2c3cc(ccc31)-c1cc(O)cc(c1)C[C@H](NC(=O)[C@H](C(C)C)N(C)C(=O)[C@H]1CCN(C(=O)C#CCN3[C@@H](C)COC[C@@H]3C)C1)C(=O)N1CCC[C@H](N1)C(=O)OCC(C)(C)C2 (atropisomer, axis not shown) [Example A244] | < 5000 | < 10 | < 10 nM | 10 to 100 nM | 100 to 1000 nM | 1000 to 10000 | 100 to 1000 nM | 100 to 1000 nM | 100 to 1000 | < 10 nM
9 | C=CC(=O)N1C[C@@H](C(=O)N(C)[C@@H](C(=O)N[C@H]2Cc3cc(O)cc(c3)-c3ccc4c(c3)c(c(-c3cccnc3COC)n4CC)CC(C)(C)COC(=O)[C@@H]3CCCN(N3)C2=O)C(C)C)C[C@H]1C [Example A159] | < 5000 | 100 to 1000 | 100 to 1000 nM | > 10000 nM | 1000 to 10000 nM | > 10000 | 1000 to 10000 nM | 1000 to 10000 nM | 1000 to 10000 | 100 to 1000 nM
10 | C#CCn1c(-c2cccnc2[C@H](C)OC)c2c3cc(ccc31)-c1cccc(c1)C[C@H](NC(=O)[C@H](C(C)C)N(C)C(=O)[C@H]1CCN(C(=O)C=C)C1)C(=O)N1CCC[C@H](N1)C(=O)OCC(C)(C)C2 (atropisomer, axis not shown) [Example A530] | < 5000 | 10 to 100 | 100 to 1000 nM | 1000 to 10000 nM | 1000 to 10000 nM | > 10000 | 1000 to 10000 nM | 1000 to 10000 nM | > 10000 | 100 to 1000 nM
11 | C=CC(=O)N1CC[C@H](C(=O)N(C)[C@H](C(=O)N[C@@H]2C(=O)N3CCC[C@H](N3)C(=O)OCC(C)(C)Cc3c(-c4cncnc4)n(CC)c4ccc(cc34)-c3cccc(c3)[C@H]2O)C(C)C)C1 [Example A272] | < 5000 | > 1000 | 1000 to 10000 nM | > 10000 nM | > 10000 nM | > 10000 | > 10000 nM | > 10000 nM | > 10000 | > 10000 nM
12 | C=CC(=O)N1CCN(C(=O)N(C)[C@H](C(=O)N[C@H]2Cc3nc(cs3)-c3ccc4c(c3)c(c(-c3cccnc3[C@H](C)OC)n4CC)CC(C)(C)COC(=O)[C@@H]3CCCN(N3)C2=O)C(C)C)C[C@@H]1C (atropisomer, axis not shown) [Example A433] | < 5000 | 10 to 100 | 10 to 100 nM | 10 to 100 nM | 10 to 100 nM | 100 to 1000 | 100 to 1000 nM | 10 to 100 nM | 100 to 1000 | 10 to 100 nM
13 | C=CC(=O)N1CC[C@H](C(=O)N(C)[C@H](C(=O)N[C@H]2Cc3cccc(c3)-c3ccc4c(c3)c(c(-c3cc5c(nc3[C@H](C)OC)CN(C)CC5)n4CC)CC(C)(C)COC(=O)[C@@H]3CCCN(N3)C2=O)C(C)C)C1 (atropisomer, axis not shown) [Example A446] | < 5000 | < 10 | 100 to 1000 nM | 1000 to 10000 nM | 1000 to 10000 nM | > 10000 | 1000 to 10000 nM | 1000 to 10000 nM | 1000 to 10000 | 100 to 1000 nM
14 | CCn1c(-c2cccnc2[C@H](C)OC)c2c3cc(ccc31)-c1cccc(c1)C[C@H](NC(=O)[C@H](C(C)C)N(C)C(=O)[C@H]1CCN(C(=O)C#CCN(C)C)C1)C(=O)N1CCC[C@H](N1)C(=O)OCC(C)(C)C2 (atropisomer, axis not shown) [Example A121] | < 5000 | 10 to 100 | 10 to 100 nM and < 10 nM | 10 to 100 nM and 1000 to 10000 nM | 1000 to 10000 nM and > 10000 nM | 1000 to 10000 | 1000 to 10000 nM and > 10000 nM | 1000 to 10000 nM and > 10000 nM | 1000 to 10000 | 10 to 100 nM and < 10 nM
15 | C=CC(=O)N1CC[C@H](C(=O)N(C)[C@H](C(=O)N[C@H]2Cc3cccc(c3)-c3ccc4c(c3)c(c(-c3cccnc3[C@H](C)OC)n4CC#N)CC(C)(C)COC(=O)[C@@H]3CCCN(N3)C2=O)C(C)C)C1 [Example A510] | < 5000 | 10 to 100 | 10 to 100 nM | 100 to 1000 nM | 1000 to 10000 nM | 1000 to 10000 | 1000 to 10000 nM | 1000 to 10000 nM | 1000 to 10000 | 10 to 100 nM
